# Measured values: patent publication US9505763B2, “Cancer treatment using BMP inhibitor” (Vanderbilt University, priority 2011, dated 2016)
# Entries after “also recorded” stand apart in the source; their conditions may differ.
# Key:
# Smad 1/5/8 activity = experiment: BRE-luciferase reporter assay; assay type: cell-based; settings: H1299 cells; 10 μM Dorsomorphin or 1 μM DMH1, DMH2, LDN; 48 hours; vs DMSO
# Description: Luciferase Assays. 10^6 H1299 cells were transfected with 2 μg of BRE-luciferace plasmid using a Nucleofector II. […] Cells were lysed with luciferase lysis buffer (Promega). Samples were added to luciferase assay substrate (Promega) and luminsescence measured by the TD-20/20 Luminometer (Turner Designs/Turner BioSystems, Sunnyvale, Calif.). Control samples included luciferase assay substrate alone and luciferase assay substrate plus 1× reporter lysis buffer.
# A549 cells [1] = experiment: Clonogenic growth assay; assay type: cell-based; settings: 1 μM, 2 weeks
# Description: (§1) Clonigenic Growth Assay. A549 and H1299 cells were plated into 6 well plates with 500 cells per well. The next day the cells were treated with DMSO or a BMP receptor antagonist for 2 weeks. The colonies were stained with Diff-Quick (IMEB Inc. San Marcos, Calif.) and the total number of colonies per well counted.
# H1299 cells [2] = experiment: Clonogenic growth assay; assay type: cell-based; settings: 1 μM, 2 weeks
# Description: as §1
# [3] = target: T1, constitutively active alk3 (ca-alk3) (Homo sapiens, UniProt P36894, Q233D); experiment: BRE-luciferase with constitutively active alk3 in H1299 cells; assay type: cell-based; settings: 1 μM antagonist
# T1 construct: expressed in transfected cells; host or cells: H1299
# Description: To assess the effects of antagonists on a specific type I BMP receptor, 2 μg of constitutively active ca-alk3 and ca-alk6 expression vectors were co-transfected with the BRE-luciferase reporter into H1299 cells with Nucleofector II. Control cells were co-transfected with the pcDNA3 expression vector. After 48 hours the cells were treated with DMSO or a BMP receptor antagonist for 48 hours and luminescence was measured.
# H1299 cells [4] = experiment: BrdU incorporation assay; assay type: cell-based; settings: 1 μM or 5 μM
# Description: BrdU Assay. Thirty-thousand H1299 cells were plated into 96 well plates. The next day the cells were treated with 1 μM DMSO, 5 μM DMSO, 1 μM DMH2, or 5 μM DMH2 for 24 and 48 hours. BrdU incorporation was measured using the Cell Proliferation ELISA, BrdU colorimetric kit as per manufacture's instruction (Roche, Indianapolis, […]). Cells were incubated with BrdU labeling solution for 2 hours, fixed/denatured, and BrdU located with a peroxidase-conjugated anti-BrdU antibody. Knockdown of all type I BMP receptors were performed in the H1299 cells by transfecting siRNA for alk2, alk3, and alk6 or control siRNA. Three days after transfection BrdU incorporation was determined. Studies were performed 4 times in triplicate.
# A549 cells [5] = experiment: Ethidium bromide uptake cell death assay; assay type: cell-based; settings: 48 hours, 10 μM Dorsomorphin or 1 μM selective antagonist
# Description: Cell Death Assay: A549 and H1299 cells were plated in 6 well plates with 10^6 cells per well. Cells were treated with DMSO or a BMP receptor antagonist for 12 and 48 hours. Adherent and floating cells were harvested and incubated with 0.1 mg/ml of ethidium bromide. Immediately after staining approximately 100 cells were counted and the percentage of cells that took up ethidium bromide was determined.
# AMP kinase = settings: compared with Dorsomorphin and LDN; cited from earlier work
# [6] = test system: phosphorylated Smad 1/5/8; experiment: Western blot for phosphorylated Smad 1/5/8; assay type: cell-based
# Description: Western Blot Analysis. Total cellular protein was prepared using RIPA buffer containing a protease inhibitor cocktail and protein concentration was measured using the BCA assay as described. In brief, protein was analyzed by SDS-PAGE, transferred to nitrocellulose (Schleicher and Schuell, Keene, N.H.). After blocking, the blots were incubated overnight at 4° C. with the appropriate primary antibody in Tris-buffered saline with 1% Tween (TBST) and 5% non-fat milk. Secondary antibodies were applied for 1 hour at room temperature. Specific proteins were detected using the enhanced chemiluminescence system (Amersham, Arlington Heights, Ill.). The primary antibodies that were used were rabbit monoclonal anti-pSmad 1/5/8 (Cell signaling Technology, Danvers Mass.) rabbit anti-actin, an affinity isolated antigen specific antibody (Sigma, Saint Louis, Mo.), rabbit monoclonal anti-Id1 and rabbit monoclonal anti-Id3 (Calbioreagents, San Mateo, Calif.).
# T1 sequence (P36894 24-532 Q233D): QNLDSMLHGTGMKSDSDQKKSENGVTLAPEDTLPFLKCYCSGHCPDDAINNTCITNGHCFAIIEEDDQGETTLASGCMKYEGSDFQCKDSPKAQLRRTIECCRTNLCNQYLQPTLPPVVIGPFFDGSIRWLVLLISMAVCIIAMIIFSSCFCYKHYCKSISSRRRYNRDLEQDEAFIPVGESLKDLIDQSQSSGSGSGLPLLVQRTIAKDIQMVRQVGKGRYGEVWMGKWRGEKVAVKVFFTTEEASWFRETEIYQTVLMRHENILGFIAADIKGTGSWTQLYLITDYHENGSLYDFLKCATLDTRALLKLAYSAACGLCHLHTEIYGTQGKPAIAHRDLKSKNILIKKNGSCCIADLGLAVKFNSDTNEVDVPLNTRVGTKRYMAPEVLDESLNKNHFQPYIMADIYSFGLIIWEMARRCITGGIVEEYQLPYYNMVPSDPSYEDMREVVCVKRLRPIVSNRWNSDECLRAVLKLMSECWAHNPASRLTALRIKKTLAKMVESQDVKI
smiles,measurement,setting,value
CN(C)CCCOc1ccc(-c2cnc3c(-c4ccnc5ccccc45)cnn3c2)cc1 [DMH2],Smad 1/5/8 activity (BRE-luciferase activity),Smad 1/5/8 activity,significant decrease
same,clonogenic growth,A549 cells [1],inhibited more by DMH2 and LDN than DMH1
same,clonogenic growth,H1299 cells [2],inhibited more by DMH2 and LDN than DMH1
same,inhibition of ca-alk3 activity (BRE-luciferase),[3],greater reduction of alk3 activity than DMH1 and LDN; also recorded: significant inhibition
same,proliferation (BrdU incorporation),H1299 cells [4]; 24 hours,dose dependent decrease in proliferation
same,proliferation (BrdU incorporation),H1299 cells [4]; 48 hours,more profound effect
same,cell death (percentage of cells taking up ethidium bromide),A549 cells [5],significant increase in cell death
same,activity for AMP kinase (comparison),AMP kinase,less activity
same,phosphorylated Smad 1/5/8 expression,[6]; A549 cells,decreases
same,level of phosphorylated Smad 1/5/8 expression,"[6]; lung cancer cell lines (H1299, A549)",decreased
